The values that follow come from article PMC8967716, “Inhibition of calcium-triggered secretion by hydrocarbon-stapled peptides” (Nature, 2022).

Data set [1] is described as follows: CD spectroscopy, α-helical content. Format: physicochemical. As to conditions: 100 μM peptide in PBS pH 7.4, [φ]222obs relative to model helical decapeptide. On the procedure:
CD spectra were measured using the AVIV stop-flow CD spectropolarimeter at 190–250 nm using a cell with a 1 mm path length. […] For the correction of the baseline error, the signal from a blank run with PBS buffer was subtracted from all the experimental spectra. The α-helical content of each peptide was calculated by dividing the mean residue ellipticity [φ]222obs by the reported [φ]222obs for a model helical decapeptide.

In another data set the test system is neuronal SNAREs alone. The experiment in a line: Single-vesicle content mixing assay, neuronal SNAREs alone (VAMP2 vesicles). Format: biochemical.
Data set [2] has as its target Syt1 C2B(QM) quintuple mutant (Rattus norvegicus, UniProt P21707, E295A/R281A/R398A/R399A/Y338W). The experiment in a line: Bulk fluorescence anisotropy binding. To be noted: Cy3-labelled SP9, fluorescence anisotropy. (Fluorescence polarisation rises when a labelled molecule tumbles more slowly, as on binding a larger partner.)
Data set [3] has as its target airway SNAREs, Syt2, Munc13-2*, Munc18-2, NSF and αSNAP (Rattus norvegicus, UniProt P29101). Nature of the data set: Single-vesicle content mixing assay, complete reconstitution. Format: biochemical. As to the method: For the complete reconstitution (Fig. 3), to form airway SM vesicles with reconstituted Stx3–Munc18-2 complex, we added the ‘disassembly factors’ (1 μM Munc18-2, 0.5 μM NSF, 5 μM αSNAP, 3 mM ATP and 3 mM Mg^2+) to tethered airway PM vesicles (Fig. 3b), according to previous work with neuronal proteins. This procedure results in tethered SM vesicles.

For data set [4], the system named is reconstituted neuronal SNAREs (Stx1A, SNAP-25A, VAMP2) and Syt1. Nature of the data set: Single-vesicle content mixing assay, neuronal SNAREs and Syt1. Format: biochemical.
Data set [5] has as its target reconstituted airway epithelial SNAREs (Stx3, SNAP-23, VAMP8) and Syt2 (Rattus norvegicus, UniProt P29101). Nature of the data set: Single-vesicle content mixing assay, simple reconstitution (SR). To be noted: for Ca2+ independent fusion per sec: ED Fig 7d.
A further data set has as its system airway SNAREs alone. Nature of the data set: Single-vesicle content mixing assay, airway SNAREs alone (VAMP8 vesicles). To be noted: for Ca2+ independent fusion per sec: ED Fig 7k.
Data set [6] relates to MUC5AC secretion from primary human airway epithelial (HAE) cells. Nature of the data set: Mucin-secretion assay in HAE cells. As to conditions: 10 μM peptide 30 min; for ratio of experimental to baseline MUC5AC secretion, mean: mean of n = 4–5 ALI cultures.
Data set [7] addresses SP9–Cy3 (hydrocarbon-stapled SNAP-25A fragment SP9 labelled with Cy3 at the C terminus). The experiment in a line: fluorescence polarisation; bulk fluorescence anisotropy; 10 nM Cy3-labelled peptide mixed with varying concentrations of unlabelled C2B domain; TBS (20 mM Tris, pH 7.5, 150 mM NaCl, 0.5 mM TCEP), 27.2 °C; Hill equation fit with the Hill coefficient constrained to 1.

For a further data set, the system named is airway lumenal mucus. Nature of the data set: Airway lumenal mucus occlusion in peptide-treated mice. To be noted: IL-13 metaplasia, 200 μM peptide by microsprayer 30 min before methacholine; sections at 500 µm intervals; each value one mouse.
The mark [8] stands for this setting: 10 μM peptide, each value one repeat experiment.

For orientation: Kd means the constant that tells how readily two partners part at equilibrium.

Values joined by “and” are separate entries in the source; they are usually repeats but may differ in a detail not shown here. Equal values may be shown once. “Also recorded” adds a separate entry of the source. Positions of bridges follow the written chain, without caps; N, C: chain ends. Non-standard residues stand in square brackets, D forms with d. Residues, ends and D or L forms follow the SMILES beside them. S5 = C=CCCC[C@](C)(N)C(=O)O

airway SNAREs, Syt2, Munc13-2*, Munc18-2, NSF and αSNAP, sequence (P29101 whole entry): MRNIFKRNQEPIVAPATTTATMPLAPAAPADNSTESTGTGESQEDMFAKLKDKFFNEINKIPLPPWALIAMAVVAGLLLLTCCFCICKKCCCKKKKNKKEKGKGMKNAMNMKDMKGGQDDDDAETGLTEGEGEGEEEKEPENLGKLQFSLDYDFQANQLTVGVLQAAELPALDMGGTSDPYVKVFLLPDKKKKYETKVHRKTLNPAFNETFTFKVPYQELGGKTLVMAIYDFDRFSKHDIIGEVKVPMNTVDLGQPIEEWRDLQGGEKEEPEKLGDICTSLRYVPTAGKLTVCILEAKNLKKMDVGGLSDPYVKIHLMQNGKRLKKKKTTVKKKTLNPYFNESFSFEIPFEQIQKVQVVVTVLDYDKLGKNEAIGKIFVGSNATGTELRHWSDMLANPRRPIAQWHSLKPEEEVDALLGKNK
reconstituted airway epithelial SNAREs (Stx3, SNAP-23, VAMP8) and Syt2, sequence (P29101 whole entry, the tested form may be a part): as the sequence (P29101 whole entry) above
Syt1 C2B (C2B domain of synaptotagmin-1, amino acid range 271–421), sequence (P21707 271-421): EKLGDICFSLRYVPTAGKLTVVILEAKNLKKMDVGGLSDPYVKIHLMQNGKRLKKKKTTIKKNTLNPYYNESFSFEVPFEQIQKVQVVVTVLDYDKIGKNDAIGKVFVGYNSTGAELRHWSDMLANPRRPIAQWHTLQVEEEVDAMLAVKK
Syt2 C2B (C2B domain of synaptotagmin-2, amino acid range 272–422), sequence (P29101 272-422): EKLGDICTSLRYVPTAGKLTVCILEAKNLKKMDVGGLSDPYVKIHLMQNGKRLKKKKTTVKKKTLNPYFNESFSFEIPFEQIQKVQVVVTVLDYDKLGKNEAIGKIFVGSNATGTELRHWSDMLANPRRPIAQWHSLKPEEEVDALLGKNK
Syt1 C2B(QM) quintuple mutant, sequence (P21707 271-421 R281A/E295A/Y338W/R398A/R399A): as the sequence (P21707 271-421) above, with R11A, E25A, Y68W, R128A, R129A counted along it

Consider `CC[C@H](C)[C@H](NC(=O)[C@]1(C)CCCC=CCCC[C@](C)(NC(=O)[C@H](CCC(=O)O)NC(=O)[C@H](CCC(=O)O)NC(C)=O)C(=O)N[C@@H](CCCCN)C(=O)N[C@@H](CC(=O)O)C(=O)N[C@@H](C)C(=O)N1)C(=O)N[C@@H](CCCNC(=N)N)C(=O)N[C@@]1(C)CCCC=CCCC[C@@](C)(C(=O)N[C@@H](CC(=O)O)C(=O)N[C@@H](CCC(=O)O)C(=O)N[C@@H](CCC(N)=O)C(=O)N[C@@H](CS)C(N)=O)NC(=O)[C@H](CCSC)NC(=O)[C@H](C(C)C)NC(=O)[C@H](CC(C)C)NC1=O` [SP9] (Ac-EE[S5]KDA[S5]IR[S5]LVM[S5]DEQC-NH2; staple 3-7, 10-14), for which the helicity in solution entry in [1] is “substantial helical content”. In addition, the “Ca2+ independent fusion per sec (average probability)” value was 0.0007718 and 0.0006567 and 0.001053 and 0.0009453 in the data set with neuronal SNAREs alone (setting [8]); 0.0004902 and 0.0004307 and 0.0004714 and 0.0004646 and 0.0003557 and 0.0002469 in [3] (10 μM SP9, each value one repeat experiment); 0.0006901 and 0.0004797 and 0.000382 and 0.0006421 in [5] (10 μM peptide added with SG vesicles, each value one repeat experiment). The Vesicle association with neuronal SNAREs alone (setting [8]) is 135 and 160 and 137; in [3] (10 μM SP9 added with SG vesicles, each value one repeat experiment), 88 and 78 and 74 and 91; in data set [4] (10 μM peptide added with SV vesicles, each value one repeat experiment), 248 and 327 and 271. Moreover, in the data set with neuronal SNAREs alone (SP9 vs no peptide), the “effect on vesicle fusion without Syt1 (VAMP2 vesicles)” value is recorded as “no effect; also recorded: little effect”. Moreover, the “binding to quintuple mutant Syt1 C2B(QM)” value in [2] is “does not bind”. The “effect on Ca2+-independent fusion probability” value in [3] (10 μM SP9) is “only moderately reduced; also recorded: relatively modest”. Also, the “effect on Ca2+-triggered fusion amplitude, cumulative fusion probability and synchronization” value in [3] (10 μM SP9, 50 μM and 500 μM Ca2+) is “strongly inhibited”. The “decrease in the Ca2+-triggered fusion amplitude” value in data set [3] (10 μM SP9 vs no peptide) is recorded as “eight to tenfold decrease”. Besides, the “effect on vesicle association” value in [3] (10 μM SP9 vs no peptide), in data set [4] (SP9 vs no peptide) and in data set [5] (SP9 vs no peptide) was “no effect” in each case. In addition, the “triggered fusion accumulative probability (within 1 min)” value is 0.0662 and 0.06402 and 0.09074 in data set [3] (50uM Ca2+, 10 μM SP9, each value one repeat experiment); 0.08824 and 0.05943 and 0.07879 in data set [3] (500uM Ca2+, 10 μM SP9, each value one repeat experiment). In [4] (SP9 vs no peptide), the “effect on Ca2+-triggered and Ca2+-independent fusion” value is “reduced both Ca^2+-triggered fusion and Ca^2+-independent fusion”. The “effect on Ca2+-independent fusion probability and Ca2+-triggered cumulative fusion probability” value in [5] (10 µM peptide vs no peptide) is “reduced both Ca^2+-triggered and, to a lesser degree, Ca^2+-independent fusion”. Moreover, the “Ca2+ independent fusion per sec” value in data set [5] (repeat 1) is 0.0006901; in [5] (repeat 2) it was 0.0004797; in [5] (repeat 3) it was 0.000382; in data set [5] (repeat 4), 0.0006421; with airway SNAREs alone (repeat 1), 0.0003451; with airway SNAREs alone (repeat 2) it was 0.000303. Moreover, the “Ca2+ independent fusion per sec” value with airway SNAREs alone (repeat 3) amounted to 0.0004574; in the data set with airway SNAREs alone (repeat 4), 0.0004141. Further, the “effect on vesicle fusion without Syt2 (VAMP8 vesicles)” value with airway SNAREs alone (SP9 vs no peptide) is “no effect; also recorded: inhibitory effect of SP9 was eliminated”. Moreover, the “ratio of experimental to baseline MUC5AC secretion, mean” value in [6] (IL13+ATP (100 µM ATP)) is 3.4860; in data set [6] (IL13, no ATP), 0.7820. Further, the “ratio of baseline to reference wash MUC5AC secretion, mean” value in data set [6] (IL-13 cultures, mean of n = 8–10 ALI cultures) was 0.7120.

Regarding “Syt1 C2B (C2B domain of synaptotagmin-1, amino acid range 271–421) (from UniProt P21707 271-421) (domain or fragment)”, in data set [7], the Kd is 24 µM.

For Ac-EESKDAGIRTLVMLDEQ-NH2 [P9], the “sum of lumenal mucus cross-sectional area, caudal lobe of the right lung” value in the data set with airway lumenal mucus is 0.382 and 0.464 and 0.617 and 0.201 and 0.286 and 0.712 and 0.372.

As for “Syt2 C2B (C2B domain of synaptotagmin-2, amino acid range 272–422) (from UniProt P29101 272-422) (domain or fragment)”, the Kd in data set [7] was 35 µM.
